Reference: patent US9469615B2, “Quinoxalines and AZA-quinoxalines as CRTH2 receptor modulators” (Merck Sharp & Dohme Corp., priority 2010, dated 2016)

molecular target: T1, hCRTH2 (Homo sapiens, UniProt Q9Y5Y4); assay: Radioligand binding assay ([3H]PGD2 competition, HEK-hCRTH2 membranes); settings: [3H]PGD2 binding, values in text
T1 construct: expressed in transfected cells; host or cells: HEK (human embryonic kidney) cells expressing hCRTH2; membrane preparation
T1 sequence (Q9Y5Y4 1-395): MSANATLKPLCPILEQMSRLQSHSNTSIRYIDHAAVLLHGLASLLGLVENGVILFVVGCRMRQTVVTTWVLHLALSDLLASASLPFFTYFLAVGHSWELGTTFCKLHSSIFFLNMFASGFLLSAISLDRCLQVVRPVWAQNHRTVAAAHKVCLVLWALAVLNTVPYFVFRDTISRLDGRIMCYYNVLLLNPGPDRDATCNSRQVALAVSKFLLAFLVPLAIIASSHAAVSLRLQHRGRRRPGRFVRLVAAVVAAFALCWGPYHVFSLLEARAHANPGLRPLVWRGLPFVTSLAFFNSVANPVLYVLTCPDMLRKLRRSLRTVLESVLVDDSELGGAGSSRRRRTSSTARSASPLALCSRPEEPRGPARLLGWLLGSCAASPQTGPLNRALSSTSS
In short: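 Competition binding with 3.0 nM [3H]PGD2 and 8-20 μg HEK-hCRTH2 membrane protein in 50 mM Tris-HCl pH 7.4, 1 mM EDTA, 2 mM MnCl2, 1% Me2SO, 60 min at room temperature. Nonspecific binding defined with 10 μM PGD2; bound radioactivity counted after filtration.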

Work on `Cc1cc2nc(-c3ccccc3)c(CCCCC(=O)O)nc2cc1C(=O)N[C@@H]1CCCc2ccccc21` [compound 526, (R)-5-(6-methyl-3-phenyl-7-((1,2,3,4-tetrahydronaphthalen-1-yl)carbamoyl)quinoxalin-2-yl)pentanoic acid] yielded a Ki of 259 nM.

same assay, conditions: [3H]PGD2 competition, Table B

`O=C(O)CCCCc1nc2cc(C(=O)N[C@@H]3c4ccccc4C[C@@H]3O)ccc2nc1-c1ccc(F)cc1` [compound 509, 5-(3-(4-fluorophenyl)-7-(((1R,2S)-2-hydroxy-2,3-dihydro-1H-inden-1-yl)carbamoyl)quinoxalin-2-yl)pentanoic acid] and `O=C(O)CCCCc1nc2cc(C(=O)N[C@@H]3c4ccccc4C[C@H]3O)ccc2nc1-c1ccc(F)cc1` [compound 510, 5-(3-(4-fluorophenyl)-7-(((1R,2R)-2-hydroxy-2,3-dihydro-1H-inden-1-yl)carbamoyl)quinoxalin-2-yl)pentanoic acid] fall in the same range of Ki: 20.1 to 200 nM for the first, 20.1 to 200 nM for the second.

`O=C(O)CCCCc1nc2cc(C(=O)N[C@H]3c4ccccc4C[C@@H]3O)ccc2nc1-c1ccc(F)cc1` [compound 511, 5-(3-(4-fluorophenyl)-7-(((1S,2S)-2-hydroxy-2,3-dihydro-1H-inden-1-yl)carbamoyl)quinoxalin-2-yl)pentanoic acid] and `O=C(O)CCCCc1nc2cc(C(=O)N[C@@H]3CCOc4cc(F)ccc43)ccc2nc1-c1ccc(Cl)cc1` [compound 532, (R)-5-(3-(4-chlorophenyl)-7-((7-fluorochroman-4-yl)carbamoyl)quinoxalin-2-yl)pentanoic acid] fall in the same range of Ki: 2.1 to 20 nM for the first, 2.1 to 20 nM for the second.

`O=C(O)CCCCc1nc2cc(C(=O)N[C@@H]3CCOc4ccccc43)ccc2nc1-c1ccccc1` [compound 512, (R)-5-(7-(chroman-4-ylcarbamoyl)-3-phenylquinoxalin-2-yl)pentanoic acid] and `O=C(O)CCCCc1nc2cc(C(=O)N[C@H]3CCOc4ccccc43)ccc2nc1-c1ccccc1` [compound 513, (S)-5-(7-(chroman-4-ylcarbamoyl)-3-phenylquinoxalin-2-yl)pentanoic acid] fall in the same range of Ki: 0.1 to 2 nM for the first, 0.1 to 2 nM for the second.

`C[C@H]1CN(c2ccccc2)CCN1C(=O)c1ccc2nc(-c3ccc(Cl)cc3)c(CCCCC(=O)O)nc2c1` [compound 514, (S)-5-(3-(4-chlorophenyl)-7-(2-methyl-4-phenyl-piperazine-1-carbonyl)quinoxalin-2-yl)pentanoic acid] and `C[C@H]1CN(c2ccccc2)CCN1C(=O)c1ccc2nc(-c3ccc(F)cc3)c(CCCCC(=O)O)nc2c1` [compound 515, (S)-5-(3-(4-fluorophenyl)-7-(2-methyl-4-phenylpiperazine-1-carbonyl)quinoxalin-2-yl)pentanoic acid] fall in the same range of Ki: 2.1 to 20 nM for the first, 2.1 to 20 nM for the second.

`C[C@H]1CN(c2ccc(F)cc2)CCN1C(=O)c1ccc2nc(-c3ccccc3)c(CCCCC(=O)O)nc2c1` [compound 516, (S)-5-(7-(4-(4-fluorophenyl)-2-methylpiperazine-1-carbonyl)-3-phenylquinoxalin-2-yl)pentanoic acid] and `C[C@@H](CCCc1nc2cc(C(=O)N3CCN(c4ccccc4)CC3)ccc2nc1-c1ccc(F)cc1)C(=O)O` [compound 524, (S)-5-(3-(4-fluorophenyl)-7-(4-phenylpiperazine-1-carbonyl)quinoxalin-2-yl)-2-methylpentanoic acid] fall in the same range of Ki: 2.1 to 20 nM for the first, 2.1 to 20 nM for the second.

`C[C@@H](CCCc1nc2cc(C(=O)N[C@H](C)c3ccc(Cl)cc3)ccc2nc1-c1ccc(F)cc1)C(=O)O` [compound 517, (S)-5-(7-(((R)-1-(4-chlorophenyl)ethyl)carbamoyl)-3-(4-fluorophenyl)quinoxalin-2-yl)-2-methyl-pentanoic acid] and `C[C@@H](NC(=O)c1ccc2nc(-c3ccc(F)cc3)c(CCCC(F)(F)C(=O)O)nc2c1)c1ccc(Cl)cc1` [compound 527, (R)-5-(7-((1-(4-chlorophenyl)ethyl)carbamoyl)-3-(4-fluorophenyl)quinoxalin-2-yl)-2,2-difluoropentanoic acid] fall in the same range of Ki: 2.1 to 20 nM for the first, 2.1 to 20 nM for the second.

`C[C@@H](CCCc1nc2cc(C(=O)N[C@@H]3CCCc4cc(F)ccc43)ccc2nc1-c1ccc(F)cc1)C(=O)O` [compound 518, (S)-5-(7-(((R)-6-fluoro-1,2,3,4-tetrahydronaphthalen-1-yl)carbamoyl)-3-(4-fluorophenyl)quinoxalin-2-yl)-2-methylpentanoic acid] and `C[C@@H](CCCc1nc2cc(C(=O)N[C@@H]3CCc4cc(F)ccc43)ccc2nc1-c1ccc(F)cc1)C(=O)O` [compound 523, (S)-5-(7-(((R)-5-fluoro-2,3-dihydro-1H-inden-1-yl)carbamoyl)-3-(4-fluorophenyl)quinoxalin-2-yl)-2-methylpentanoic acid] fall in the same range of Ki: 2.1 to 20 nM for the first, 2.1 to 20 nM for the second.

`C[C@@H](CCCc1nc2cc(C(=O)N[C@@H]3CCCc4cc(Cl)ccc43)ccc2nc1-c1ccc(F)cc1)C(=O)O` [compound 519, (S)-5-(7-(((R)-6-chloro-1,2,3,4-tetrahydronaphthalen-1-yl)carbamoyl)-3-(4-fluorophenyl)quinoxalin-2-yl)-2-methylpentanoic acid] and `C[C@@H](CCCc1nc2cc(C(=O)N[C@@H]3CCc4cc(Cl)ccc43)ccc2nc1-c1ccc(F)cc1)C(=O)O` [compound 522, (S)-5-(7-(((R)-5-chloro-2,3-dihydro-1H-inden-1-yl)carbamoyl)-3-(4-fluorophenyl)quinoxalin-2-yl)-2-methylpentanoic acid] fall in the same range of Ki: 2.1 to 20 nM for the first, 2.1 to 20 nM for the second.

Compared with `C[C@@H](CCCc1nc2cc(C(=O)N[C@@H]3CCOc4ccccc43)ccc2nc1-c1ccc(F)cc1)C(=O)O` [compound 520, (S)-5-(7-((R)-chroman-4-ylcarbamoyl)-3-(4-fluorophenyl)quinoxalin-2-yl)-2-methylpentanoic acid], `C[C@@H](CCCc1nc2cc(C(=O)N[C@@H]3CCCc4ncccc43)ccc2nc1-c1ccc(F)cc1)C(=O)O` [compound 521, (S)-5-(3-(4-fluorophenyl)-7-(((R)-5,6,7,8-tetrahydroquinolin-5-yl)carbamoyl)quinoxalin-2-yl)-2-methylpentanoic acid] is higher in Ki: 2.1 to 20 nM for the first, 20.1 to 200 nM for the second. The first binds more tightly here.

`Cc1nnc(CNC(=O)c2ccc3nc(-c4ccc(F)cc4)c(CCCCC(=O)O)nc3c2)o1` [compound 525, 5-(3-(4-fluorophenyl)-7-(((5-methyl-1,3,4-oxadiazol-2-yl)methyl)carbamoyl)quinoxalin-2-yl) pentanoic acid] and `CN(Cc1ccc(F)cc1)C(=O)c1ccc2nc(-c3ccc(F)cc3)c(CCCC(F)(F)C(=O)O)nc2c1` [compound 529, 2,2-difluoro-5-(7-((4-fluorobenzyl)(methyl)carbamoyl)-3-(4-fluorophenyl)quinoxalin-2-yl)pentanoic acid] fall in the same range of Ki: 20.1 to 200 nM for the first, 20.1 to 200 nM for the second.

First: Cc1cc2nc(-c3ccccc3)c(CCCCC(=O)O)nc2cc1C(=O)N[C@@H]1CCCc2ccccc21 [compound 526, (R)-5-(6-methyl-3-phenyl-7-((1,2,3,4-tetrahydronaphthalen-1-yl)carbamoyl)quinoxalin-2-yl)pentanoic acid]
Second: O=C(c1ccc2nc(-c3ccc(F)cc3)c(CCCC(F)(F)C(=O)O)nc2c1)N1CCC(c2ccccc2)CC1 [compound 531, 2,2-difluoro-5-(3-(4-fluorophenyl)-7-(4-phenylpiperidine-1-carbonyl)quinoxalin-2-yl)pentanoic acid]
The Ki of the first is higher: 201 to 700 nM for the first, 2.1 to 20 nM for the second.

`O=C(N[C@H](c1ccc(F)cc1)C(F)(F)F)c1ccc2nc(-c3ccc(F)cc3)c(CCCC(F)(F)C(=O)O)nc2c1` [compound 528, (R)-2,2-difluoro-5-(3-(4-fluorophenyl)-7-((2,2,2-trifluoro-1-(4-fluorophenyl)ethyl)carbamoyl)quinoxalin-2-yl)pentanoic acid] and `O=C(c1ccc2nc(-c3ccc(F)cc3)c(CCCC(F)(F)C(=O)O)nc2c1)N1CCN(c2ccccc2)CC1` [compound 530] fall in the same range of Ki: 20.1 to 200 nM for the first, 20.1 to 200 nM for the second.
